Data taken from PMC11579541, “In vitro, in vivo, and in silico approaches for evaluating the preclinical DMPK profiles of ammoxetine, a novel chiral serotonin and norepinephrine reuptake inhibitor” (Frontiers in Pharmacology, 2024).
Where two headings read alike, the source gives them in different places.

What was measured:
[1] = PK study in rats; assay type: in vivo, SD rats; conditions: rat, plasma; for CL/F: read-out: CLz/F (converted); for MRT last: read-out: MRT(0-t); for MRT inf: read-out: MRT(0-∞); for Vd/F: read-out: Vz/F; for half-life: read-out: t1/2z (converted)
Method: For the PK studies in rats and dogs, a total of 18 SD rats and 15 male beagle dogs were randomly divided into three groups, with six rats or five dogs per group, respectively. Prior to the experiments, all animals underwent a 12-h fasting period, while having free access to water. The animals were administered single oral doses of ammoxetine in three different dose levels: 8 mg/kg, 20 mg/kg, and 50 mg/kg for rats, and 2 mg/kg, 5 mg/kg, and 12.5 mg/kg for dogs, representing low, medium, and high doses. Serial blood samples were collected from the rats at 0, 2, 5, 15, and 30 min, as well as 1, 2, 4, 6, 8, 12, and 24 h post-dosing. For the dogs, blood samples were collected at 0, 5, 15, 30, and 45 min, as well as 1, 2, 4, 6, 8, 12, and 24 h post-dosing. Approximately 0.3 mL of blood was collected from the rats, while 2 mL of blood was collected from the dogs. The blood samples were collected into heparinized tubes. Following centrifugation, plasma samples were obtained and stored at −30°C until further analysis.
To determine the concentration of ammoxetine, 100 μL of L-phencynonate (IS, 50 ng/mL) and 300 μL of methanol were added to 100 μL of plasma samples from rats or dogs. After thorough vortexing, the mixture was centrifuged at 13,800×g for 10 min. The supernatants were then subjected to analysis using LC-MS-MS methods. PK parameters were calculated using DAS (Drug And Statistics for Windows) version 2.0, developed by the Shanghai University of Traditional Chinese Medicine, Shanghai, China. The F was determined by comparing the plasma area under the concentration-time curve (AUC) values after oral (p.o.) and intravenous (i.v.) administration of ammoxetine. F was calculated using the formula: F=AUCp.o./AUCi.v.×100% . Statistical analyses were performed using OriginPro 8.6 software. Paired sample or student’s t-test, as well as one-way ANOVA, were employed to compare the means of two or three groups, with a significance level set at p < 0.05.

[2] = Tissue distribution study in rats; assay type: in vivo; conditions: 20 mg/kg oral; for Tmax: read-out: time of peak concentration in tissue; for Kp: po, 20 mg/kg, read-out: AUC(0→t),tissue/AUC(0→t),blood
Method: A total of 24 rats were divided equally into four groups, with each group receiving a single oral gavage dose of 20 mg/kg of ammoxetine. Based on the rat PK analysis results for the 20 mg/kg dose, specific time points were selected for sampling, including before, at, and after the peak of ammoxetine plasma concentration (i.e., 0.25, 2, 6, and 24 h, respectively). At each designated time point after drug administration, the rats were euthanized, and approximately 1 mL of blood samples were collected into heparinized tubes. The heart, liver, spleen, lung, kidney, brain, intestine, stomach, testis, fat, and muscle tissues were rapidly removed after washing out the blood with ice-cold saline. The blood samples were then centrifuged at 6,000 r/min for 15 min to obtain plasma. The collected tissue samples were weighed and homogenized in distilled water to create a 10% homogenate. For further analysis, 100 μL of plasma or tissue homogenate samples were mixed with 300 μL of methanol and 100 μL of L-phencynonate (IS, 50 ng/mL). The mixture was vortexed for 1 min and then centrifuged at 13,800×g for 10 min. The resulting supernatants were used for LC-MS-MS analysis. Using the trapezoidal method, the tissue-to-blood AUC ratio ( AUC0→t,tissue/AUC0→t,blood ) was calculated based on the obtained AUC values. This ratio allowed for the comparison of differential tissue distribution of ammoxetine in rats.

[3] = Stability of ammoxetine in dog plasma (method validation); assay type: in vitro ADME
Method: LC-MS-MS methods were developed and validated to accurately quantify ammoxetine in rat and beagle dog plasma, as well as in rat tissues, urine, feces, and bile. The methods involved direct protein precipitation using methanol, providing a straightforward and rapid sample preparation process with high extraction recovery rates (absolute recoveries >85% in all matrices). […] The precision and accuracy of the plasma methods were evaluated through intra-day and inter-day analyses, yielding satisfactory results. Additionally, stability tests conducted in rat and beagle dog plasma met the analytical requirements for determination. Furthermore, the majority of the analytes met the necessary criteria for matrix effects when quantifying ammoxetine in biological samples. The developed methods are well-suited for determining ammoxetine concentrations in rat and beagle dog biological samples, enabling in vivo studies of this compound. They provide specific and highly sensitive quantification, facilitating investigations into the drug’s behavior in vivo. Detailed results regarding the establishment and validation of these analytical methods can be found in Supplementary Data Sheet 2.

CNCC[C@H](Oc1cccc2c1OCO2)c1cccs1 [ammoxetine]
AUC(0-inf) ([1]; SD, 8 mg/kg single oral dose): 1370 ng·h/mL
AUC(0-t) ([1]; SD, 8 mg/kg single oral dose): 1370 ng·h/mL
Cmax ([1]; SD, 8 mg/kg single oral dose): 287 ± 50.8 ng/mL
CL/F ([1]; SD, 8 mg/kg single oral dose): 100 mL/min/kg
MRT last ([1]; SD, 8 mg/kg single oral dose): 4.38 ± 0.47 h
MRT inf ([1]; SD, 8 mg/kg single oral dose): 4.49 ± 0.44 h
Tmax ([1]; SD, 8 mg/kg single oral dose, read-out: Tmax): 0.75 ± 0.27 h
Vd/F ([1]; SD, 8 mg/kg single oral dose): 24.4 ± 4.48 L/kg
half-life ([1]; SD, 8 mg/kg single oral dose): 2.87 ± 0.59 h
AUC(0-inf) ([1]; SD, 20 mg/kg single oral dose): 3400 ng·h/mL
AUC(0-t) ([1]; SD, 20 mg/kg single oral dose): 3200 ng·h/mL
Cmax ([1]; SD, 20 mg/kg single oral dose): 400 ± 246 ng/mL
CL/F ([1]; SD, 20 mg/kg single oral dose): 108 mL/min/kg
MRT last ([1]; SD, 20 mg/kg single oral dose): 6.73 ± 1.25 h
MRT inf ([1]; SD, 20 mg/kg single oral dose): 8.57 ± 3.58 h
Tmax ([1]; SD, 20 mg/kg single oral dose, read-out: Tmax): 1.58 ± 1.39 h
Vd/F ([1]; SD, 20 mg/kg single oral dose): 53.5 ± 29 L/kg
half-life ([1]; SD, 20 mg/kg single oral dose): 5.61 ± 2.59 h
AUC(0-inf) ([1]; SD, 50 mg/kg single oral dose): 12900 ng·h/mL
AUC(0-t) ([1]; SD, 50 mg/kg single oral dose): 11000 ng·h/mL
Cmax ([1]; SD, 50 mg/kg single oral dose): 987 ± 362 ng/mL
CL/F ([1]; SD, 50 mg/kg single oral dose): 72.3 mL/min/kg
MRT last ([1]; SD, 50 mg/kg single oral dose): 7.74 ± 0.52 h
MRT inf ([1]; SD, 50 mg/kg single oral dose): 11.8 ± 7.34 h
Tmax ([1]; SD, 50 mg/kg single oral dose, read-out: Tmax): 3.83 ± 2.7 h
Vd/F ([1]; SD, 50 mg/kg single oral dose): 40.3 ± 16.4 L/kg
half-life ([1]; SD, 50 mg/kg single oral dose): 7.51 ± 5.7 h
Tmax ([1]; Sprague-Dawley (SD), oral 8, 20 and 50 mg/kg, read-out: Tmax values, range): 0.75 to 3.83 h
Plasma exposure as share of total systemic exposure (AUC0→t,blood/AUC0→t,total) [2]: approximately 0.186%
AUC(0→t) ([2]; brain): 60,541.26 ± 19,438.07 ng/g·h
AUC(0→t) ([2]; fat): 38,592.32 ± 24,498.69 ng/g·h
AUC(0→t) ([2]; heart): 44,743.11 ± 11,086.06 ng/g·h
AUC(0→t) ([2]; intestine): 190,710.5 ± 52,982.23 ng/g·h
AUC(0→t) ([2]; kidney): 98,000.01 ± 25,400.16 ng/g·h
AUC(0→t) ([2]; liver): 208,081.20 ± 64,872.68 ng/g·h
AUC(0→t) ([2]; lung): 393,670.80 ± 31,407.40 ng/g·h
AUC(0→t) ([2]; muscle): 24,154.50 ± 6,583.59 ng/g·h
AUC(0→t) ([2]; spleen): 117,673.30 ± 31,479.36 ng/g·h
AUC(0→t) ([2]; stomach): 118,279.40 ± 37,565.21 ng/g·h
AUC(0→t) ([2]; testis): 69,347.84 ± 13,459.91 ng/g·h
Tmax ([2]; rat, heart, spleen, lung, kidney, brain, fat and muscle): 2 h
Tmax ([2]; rat, testis): 6 h
Kp ([2]; rat, brain, brain): ~23.3
Kp ([2]; rat, fat, fat): 14.2 ± 7.84
Kp ([2]; rat, heart, heart): 17.1 ± 3.3
Kp ([2]; rat, intestine, intestine): 75.6 ± 28.2
Kp ([2]; rat, kidney, kidney): 37.7 ± 8.18
Kp ([2]; rat, liver, liver): 81.4 ± 26.8
Kp ([2]; rat, lung, lung): 155 ± 34.7
Kp ([2]; rat, muscle, muscle): 9.31 ± 2.29
AUC(0-t) ([2]; rat, plasma, blood): 2620 ng·h/mL
Kp ([2]; rat, spleen, spleen): 46 ± 14.2
Kp ([2]; rat, stomach, stomach): 48.8 ± 27.6
Kp ([2]; rat, testis, testis): 27.3 ± 8.12
Stability in dog plasma, Accuracy/% ([3]; 5 ng/mL, 0d (-30℃)): 91.60±7.22%
Stability in dog plasma, Accuracy/% ([3]; 5 ng/mL, 15d (-30℃)): 97.58±13.78%
Stability in dog plasma, Accuracy/% ([3]; 5 ng/mL, 25d (-30℃)): 97.61±9.77%
Stability in dog plasma, Accuracy/% ([3]; 5 ng/mL, in auto-sampler for 24h): 96.64±4.72%
Stability in dog plasma, Accuracy/% ([3]; 5 ng/mL, repeated freezing and thawing for 3 times): 96.59±4.01%
Stability in dog plasma, Accuracy/% ([3]; 5 ng/mL, room temperature for 4h): 99.00±11.24%
Stability in dog plasma, Accuracy/% ([3]; 100 ng/mL, 0d (-30℃)): 100.10 ±1.62%
Stability in dog plasma, Accuracy/% ([3]; 100 ng/mL, 15d (-30℃)): 98.63±4.19%
Stability in dog plasma, Accuracy/% ([3]; 100 ng/mL, 25d (-30℃)): 101.68 ±6.57%
Stability in dog plasma, Accuracy/% ([3]; 100 ng/mL, in auto-sampler for 24h): 99.51±7.50%
Stability in dog plasma, Accuracy/% ([3]; 100 ng/mL, repeated freezing and thawing for 3 times): 98.25±6.55%
Stability in dog plasma, Accuracy/% ([3]; 100 ng/mL, room temperature for 4h): 101.87 ±8.27%
Stability in dog plasma, Accuracy/% ([3]; 1200 ng/mL, 0d (-30℃)): 92.06±3.06%
Stability in dog plasma, Accuracy/% ([3]; 1200 ng/mL, 15d (-30℃)): 92.48±4.64%
Stability in dog plasma, Accuracy/% ([3]; 1200 ng/mL, 25d (-30℃)): 93.96±3.46%
Stability in dog plasma, Accuracy/% ([3]; 1200 ng/mL, in auto-sampler for 24h): 92.32±4.25%
Stability in dog plasma, Accuracy/% ([3]; 1200 ng/mL, repeated freezing and thawing for 3 times): 92.01±6.32%
Stability in dog plasma, Accuracy/% ([3]; 1200 ng/mL, room temperature for 4 h): 93.89±4.32%
